Experimental data taken from paper PMC9090415, “Discovery of small molecule inhibitors of Plasmodium falciparum apicoplast DNA polymerase” (Journal of Enzyme Inhibition and Medicinal Chemistry, 2022).

Target: P. falciparum apicoplast DNA polymerase (Pf-apPOL) (Plasmodium falciparum, UniProt Q8ILY1)
Assay: Fluorescence-based high-throughput DNA polymerase assay (molecular beacon), primary screen and dose-response
Type: biochemical
Description: The HT assay employs a molecular beacon, a stem-loop DNA template with a Cy3 dye and the Black Hole Quencher on the 3′ and 5′ ends of the DNA, respectively. Pf-apPOL concentration is based on a calculated absorptivity of ε280 = 56750 M^−1 cm^−1. Reactions were carried out at 25 °C, using Corning 3575 […] (well-volume, 20 µL). Assays testing for compound inhibition composed of reaction buffer (pH 7.9 in 50 mM potassium acetate, 20 mM Tris-acetate and 10 mM magnesium acetate), Pf-apPOL (20 nM), DNA substrate (20 nM), dNTPs (6 µM), and compound (10 µM in DMSO). The DNA and nucleotide substrates (dNTPs) were at concentrations of 20 nM and 6 µM, respectively, in the assay. Pf-apPOL was incubated in the reaction buffer with dNTPs and the compound of interest (10 µM, in the assay) at 25 °C for 10 min. The DNA substrate was then added and the reaction was allowed to proceed for 90 min at 25 °C.
Each assay plate contained 16 negative controls (no Pf-apPOL, DMSO present) and 16 positive controls (Pf-apPOL present, no DMSO). The fluorescence of each well was determined using a BioTek Synergy Neo fluorescence plate reader using excitation and emission wavelengths of 555 and 570 nm, respectively.
In the above, Min is the average of fluorescence emission of the negative controls (substrate only), Max the average fluorescence emission from the positive controls (enzyme + substrate), and Test the emission from the assays in the presence of compounds (enzyme + compound + substrates). […] […] The IC50 of each compound was determined using Equation (2): (2) IC50= Vmax/(1+ (I/IC50)^n)
In the above, n measures cooperativity, with n > 1 indicating synergistic binding of more than a single molecule of the compound.
To identify apPOL inhibitors we utilised our previously developed high-throughput DNA polymerase assay. The HT assay is based on a molecular beacon DNA template that forms a stem-loop with a Cy3 dye and the Black Hole Quencher on the 3′ and 5′ ends of the DNA, respectively. DNA polymerase activity extends an annealed primer through the stem region, displacing the fluorophore from the quencher, thereby increasing its fluorescence (Figure 1(A)). The assay accurately recapitulates the kinetic behaviour of apPOL, as measured through more conventional low-throughput gel-based assays. The Z′ factor for the assay described here was 0.9 across all plates (data not shown).
Figure 1. High-throughput screening. (A) The fluorescent-based DNA polymerase assay used to screen the compound libraries. The DNA template strand is a hairpin loop with a primer annealed to the loop. The 3’ end of the primer is 11 bases away from the 6 bp duplex. Strand displacement activity of the DNA polymerase separates the Cy3 dye from the Black hole quencher leading to an increase in fluorescent signal. (B) The high-throughput assay workflow. The DNA polymerase is incubated with […] compound for 10 min prior to addition of the hairpin substrate. The reaction is quenched at 3 different time points and the fluorescent signal is measured and % inhibition is determined using the provided equation.

[1] = supplemental file 2, sheet IC50 nontoxic compounds; Pf-apPOL

Sequence of P. falciparum apicoplast DNA polymerase (Pf-apPOL) (Q8ILY1 entry or part of it): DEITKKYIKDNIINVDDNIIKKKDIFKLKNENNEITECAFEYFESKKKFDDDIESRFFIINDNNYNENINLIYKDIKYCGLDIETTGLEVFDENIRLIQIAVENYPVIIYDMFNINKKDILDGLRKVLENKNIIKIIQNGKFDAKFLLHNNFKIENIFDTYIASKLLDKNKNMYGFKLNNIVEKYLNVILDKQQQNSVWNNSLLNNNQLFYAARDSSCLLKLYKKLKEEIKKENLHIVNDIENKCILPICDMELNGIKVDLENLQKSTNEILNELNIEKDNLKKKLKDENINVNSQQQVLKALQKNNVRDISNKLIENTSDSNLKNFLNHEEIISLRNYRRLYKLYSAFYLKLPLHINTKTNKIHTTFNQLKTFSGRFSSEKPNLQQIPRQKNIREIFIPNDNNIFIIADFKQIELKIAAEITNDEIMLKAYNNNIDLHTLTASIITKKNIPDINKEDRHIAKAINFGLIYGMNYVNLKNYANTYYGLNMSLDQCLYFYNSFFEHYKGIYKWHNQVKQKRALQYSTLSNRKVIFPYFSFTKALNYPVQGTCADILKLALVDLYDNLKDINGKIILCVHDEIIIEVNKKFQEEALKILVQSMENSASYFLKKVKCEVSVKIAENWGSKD

Structure (SMILES): COc1ccc(-c2occ(C(=O)O)c2C(=O)O)cc1 [KU0021536]
- % inhibition Apo pol 10' (DRC-1; concentration 2.5; 10'): 12.66%
- % inhibition Apol 90' (DRC-1; concentration 2.5; 90'): 6.208%
- % inhibition apPOL 180' (DRC-1; concentration 2.5; 180'): 0.2787%
- % inhibition Apo pol 10' (DRC-1; concentration 5; 10'): 21.9361%
- % inhibition Apol 90' (DRC-1; concentration 5; 90'): 18.5169%
- % inhibition apPOL 180' (DRC-1; concentration 5; 180'): 12.9539%
- % inhibition Apo pol 10' (DRC-1; concentration 10; 10'): 43.1098%
- % inhibition Apol 90' (DRC-1; concentration 10; 90'): 39.5848%
- % inhibition apPOL 180' (DRC-1; concentration 10; 180'): 35.5357%
- % inhibition Apo pol 10' (DRC-1; concentration 20; 10'): 66.1228%
- % inhibition Apol 90' (DRC-1; concentration 20; 90'): 63.2397%
- % inhibition apPOL 180' (DRC-1; concentration 20; 180'): 62.8921%
- % inhibition Apo pol 10' (DRC-1; concentration 40; 10'): 86.5866%
- % inhibition Apol 90' (DRC-1; concentration 40; 90'): 84.6266%
- % inhibition apPOL 180' (DRC-1; concentration 40; 180'): 85.4203%
- % inhibition Apo pol 10' (DRC-1; concentration 80 (unit not given); 10'): 93.5468%
- % inhibition Apol 90' (DRC-1; concentration 80; 90'): 92.3135%
- % inhibition apPOL 180' (DRC-1; concentration 80; 180'): 92.8082%
- % inhibition Apo pol 5' (DRC-2; 5'; concentration 40): 50%
- % inhibition Apol 40' (DRC-2; 40'; concentration 10): 48%
- % inhibition ApPOL 90' (DRC-2; 90'; concentration 10): 50%
- % inhibition ApPOL 90' (DRC-2; 90'; concentration 80): 77%
- % inhibition apPOL 180' (DRC-2; 180'; concentration 10): 48%
- % inhibition apPOL 180' (DRC-2; 180'; concentration 40): 77%
- % inhibition Apo pol 5' (DRC-2; concentration 2.5; 5'): 7%
- % inhibition Apol 40' (DRC-2; concentration 2.5; 40'): 17%
- % inhibition ApPOL 90' (DRC-2; concentration 2.5; 90'): 16%
- % inhibition apPOL 180' (DRC-2; concentration 2.5; 180'): 10%
- % inhibition Apo pol 5' (DRC-2; concentration 5; 5'): 21%
- % inhibition Apol 40' (DRC-2; concentration 5; 40'): 30%
- % inhibition ApPOL 90' (DRC-2; concentration 5; 90'): 32%
- % inhibition apPOL 180' (DRC-2; concentration 5; 180'): 27%
- % inhibition Apo pol 5' (DRC-2; concentration 10; 5'): 34%
- % inhibition Apol 40' (DRC-2; concentration 10; 40'): 48%
- % inhibition ApPOL 90' (DRC-2; concentration 10; 90'): 50%
- % inhibition apPOL 180' (DRC-2; concentration 10; 180'): 48%
- % inhibition Apo pol 5' (DRC-2; concentration 20; 5'): 43%
- % inhibition Apol 40' (DRC-2; concentration 20; 40'): 62%
- % inhibition ApPOL 90' (DRC-2; concentration 20; 90'): 66%
- % inhibition apPOL 180' (DRC-2; concentration 20; 180'): 67%
- % inhibition Apo pol 5' (DRC-2; concentration 40; 5'): 50%
- % inhibition Apol 40' (DRC-2; concentration 40; 40'): 70%
- % inhibition ApPOL 90' (DRC-2; concentration 40; 90'): 75%
- % inhibition apPOL 180' (DRC-2; concentration 40; 180'): 77%
- % inhibition Apo pol 5' (DRC-2; concentration 80; 5'): 51%
- % inhibition Apol 40' (DRC-2; concentration 80; 40'): 74%
- % inhibition ApPOL 90' (DRC-2; concentration 80; 90'): 77%
- % inhibition apPOL 180' (DRC-2; concentration 80; 180'): 80%
- DNA Pol (primary screen value of the 186 hits; unit not given; 90 min, 10 µM): 29
- DNA Pol (primary screen value; head prints only 'DNA Pol'; 90 min, 10 µM): 29

Structure (SMILES): O=c1cc(-c2ccccc2)oc2c(O)c(O)ccc12 [Molecule 84, Oc1ccc2c(c1O)oc(cc2=O)c1ccccc1]
- DNA Pol (186 hits, value of the hit list (primary screen); unit not given; 90 min, 10 µM): 55
- % inhibition Apo pol 10' (DRC-1; 10'; concentration 2.5): 14.1303%
- % inhibition Apo pol 10' (DRC-1; 10'; concentration 5): 19.657%
- % inhibition Apo pol 10' (DRC-1; 10'; concentration 10): 33.8432%
- % inhibition Apo pol 10' (DRC-1; 10'; concentration 20): 42.9919%
- % inhibition Apo pol 10' (DRC-1; 10'; concentration 40): 51.8731%
- % inhibition Apo pol 10' (DRC-1; 10'; concentration 80): 57.9256%
- % inhibition Apol 90' (DRC-1; 90'; concentration 2.5): 6.487%
- % inhibition Apol 90' (DRC-1; 90'; concentration 5): 3.595%
- % inhibition Apol 90' (DRC-1; 90'; concentration 10): 11.2996%
- % inhibition Apol 90' (DRC-1; 90'; concentration 20): 16.5407%
- % inhibition Apol 90' (DRC-1; 90'; concentration 40): 24.8113%
- % inhibition Apol 90' (DRC-1; 90'; concentration 80): 29.7853%
- % inhibition apPOL 180' (DRC-1; 180'; concentration 2.5): 1.7844%
- % inhibition apPOL 180' (DRC-1; 180'; concentration 5): -2.772%
- % inhibition apPOL 180' (DRC-1; 180'; concentration 10): 4.166%
- % inhibition apPOL 180' (DRC-1; 180'; concentration 20): 7.699%
- % inhibition apPOL 180' (DRC-1; 180'; concentration 40): 14.2771%
- % inhibition apPOL 180' (DRC-1; 180'; concentration 80): 18.1576%
- % inhibition Apo pol 5' (DRC-2, 5', concentration 2.5): 12%
- % inhibition Apo pol 5' (DRC-2, 5', concentration 5): 18%
- % inhibition Apo pol 5' (DRC-2, 5', concentration 10): 26%
- % inhibition Apo pol 5' (DRC-2, 5', concentration 20): 32%
- % inhibition Apo pol 5' (DRC-2, 5', concentration 40): 41%
- % inhibition Apo pol 5' (DRC-2, 5', concentration 80): 42%
- % inhibition Apol 40' (DRC-2, 40', concentration 2.5): 10%
- % inhibition Apol 40' (DRC-2, 40', concentration 5): 13%
- % inhibition Apol 40' (DRC-2, 40', concentration 10): 21%
- % inhibition Apol 40' (DRC-2, 40', concentration 20): 23%
- % inhibition Apol 40' (DRC-2, 40', concentration 40): 32%
- % inhibition Apol 40' (DRC-2, 40', concentration 80): 36%
- % inhibition ApPOL 90' (DRC-2, 90', concentration 2.5): 8%
- % inhibition ApPOL 90' (DRC-2, 90', concentration 5): 10%
- % inhibition ApPOL 90' (DRC-2, 90', concentration 10): 16%
- % inhibition ApPOL 90' (DRC-2, 90', concentration 20): 17%
- % inhibition ApPOL 90' (DRC-2, 90', concentration 40): 26%
- % inhibition ApPOL 90' (DRC-2, 90', concentration 80): 32%
- % inhibition apPOL 180' (DRC-2, 180', concentration 2.5): 1.74%
- % inhibition apPOL 180' (DRC-2, 180', concentration 5): 3.63%
- % inhibition apPOL 180' (DRC-2, 180', concentration 10): 7.41%
- % inhibition apPOL 180' (DRC-2, 180', concentration 20): 6%
- % inhibition apPOL 180' (DRC-2, 180', concentration 40): 16%
- % inhibition apPOL 180' (DRC-2, 180', concentration 80): 23%
- % inhibition Apo pol 5' (DRC-2; 5'; concentration 10): 26%
- % inhibition Apo pol 5' (DRC-2; 5'; concentration 20): 32%
- % inhibition Apol 40' (DRC-2; 40'; concentration 2.5): 10%
- % inhibition Apol 40' (DRC-2; 40'; concentration 20): 23%
- % inhibition Apol 40' (DRC-2; 40'; concentration 40): 32%
- % inhibition ApPOL 90' (DRC-2; 90'; concentration 5): 10%
- % inhibition ApPOL 90' (DRC-2; 90'; concentration 10): 16%
- % inhibition ApPOL 90' (DRC-2; 90'; concentration 40): 26%
- % inhibition ApPOL 90' (DRC-2; 90'; concentration 80): 32%
- % inhibition apPOL 180' (DRC-2; 180'; concentration 40): 16%
- % inhibition apPOL 180' (DRC-2; 180'; concentration 80): 23%
- DNA Pol (primary screen value, 'DNA Pol' only; 90 min, 10 µM): 55

Structure (SMILES): Cc1ccsc1Cn1c(C)ccc1C [Molecule 70]
- IC50 [1]: 31.6 µM

Structure (SMILES): Cc1cccc(CC(=O)N2CCc3c(nc4cc(-c5ccccc5)[nH]n4c3=O)C2)c1 [Molecule 12]
- IC50 [1]: 5.56 µM

Structure (SMILES): O=C(Cn1ccc2c(=O)[nH]ccc21)Nc1cc(F)ccc1F [Molecule 42]
- IC50 [1]: 12.7 µM

Structure (SMILES): COc1ccc(C)cc1NC(=O)Cn1ccc2c(=O)[nH]ccc21 [Molecule 15]
- IC50 [1]: 7.23 µM
